From patent publication US6197751A, “Thymosin α1 promotes tissue repair, angiogenesis and cell migration” (The United States of America as represented by the …, priority 1998, dated 2001)
Ends that are not written are not given here.

What was measured:
[1] = system: foreskin fibroblasts; test: Boyden chamber migration, foreskin fibroblasts; type: cell-based; conditions: for average number of cells that migrated ± SEM: FF
Procedure: (§1) Human umbilical vein endothelial cells (HUVECs) were isolated from freshly delivered cords according to Jaffe et al. (J. Clin. Invest. 52: 2745, 1973) and grown on Nunclon dishes (Nunc, Denmark) in RPMI 1640 (Life Technologies, Gaithersburg, Md.) supplemented with 20% bovine calf serum (Hyclone Laboratories, Logan Utah), 100 U/ml penicillin/streptomycin (Life Technologies, Gaithersburg, Md.), 50 μg/ml gentamycin (Life Technologies, Gaithersburg, Md.), 2.7 μg/ml amphotericin B (fungizone)(Life Technologies, Gaithersburg, Md.), 5 U/ml sodium heparin (Fisher Scientific, Pittsburgh, Pa.) and 200 μg/ml endothelial cell growth supplement (ECGS) (Collaborative Research, Bedford, Mass.). Cells between passage 3 and 5 were used for all experiments. Human coronary artery endothelial cells (HCAECs) were grown on Nunclon dishes in the HUVEC media. Foreskin fibroblasts (Ffs) were grown in DMEM supplemented with 10% fetal bovine serum (Hyclone) on Falcon (Becton Dickinson, N.J.) dishes. HT1080 cells (human fibrosarcoma cell line) were grown in Falcon flasks in DMEM supplemented with 10% fetal bovine serum. Neutrophils were freshly isolated from buffy coats as previously reported (Kibbey et al., J. Cell Phys. 160:185, 1994). Human aortic smooth muscle cells (AOSMCs) were grown in smooth muscle cell media (Clonetics, San Diego, Calif.) on Nunclon dishes.
(§2) Several cell types were tested to determine if the migratory stimulation observed with Tα1 was specific. […] HUVEC migration assays were carried out in Boyden chambers using 12 ,m pore PVP free filters coated with either a 0.1 mg/ml or 0.05 mg/ml solution of collagen IV as previously reported (Malinda et al., FASEB J. 11:474, 1997). Each condition was assayed in triplicate wells at least three times unless indicated. HCAECs, AOSMCs, FFs, HT1080 cells and neutrophils were cultured or isolated and assayed for migration as previously reported (Malinda et al., FASEB J. 11:474, 1997).

[2] = system: C57Bl/6N female mice; test: Subcutaneous Matrigel plug assay; type: in vivo
Procedure: Since Tα1 enhanced HUVEC migration in vitro, experiments were performed to determine if Tα1 promoted cell migration and vessel formation in vivo. Endothelial cells invade and form vessels in Matrigel plugs containing angiogenic factors (Kibbey et al., J. Cell Phys. 160:185, 1994; Passaniti et al., Lab. Invest. 67: 519, 1992). […] Three random fields were collected and analyzed per plug in each of three experiments. […] Cells migrate into the plug from the area closest to the skin forming vessels (FIG. 5). Plugs containing Tα1 (FIGS. 5C and 5D) show many more cells than in the Matrigel alone (FIG. 5A). Cell morphology was similar to those in plugs containing 10 ng/ml of the positive control ECGS (FIG. 5B).

[3] = system: rats; test: Full thickness punch biopsy wound healing; type: in vivo; conditions: for reepithelization of the wound / collagen production (Masson's trichrome) / histology of dermis near dermal and epidermal junction: 8 day punch wounds; for wound healing compared to untreated wounds: rats
Procedure: Six full thickness 8 mm punch biopsy wounds were made on the dorsal surface of rats as previously reported (Bhartiya et al., J. Cell. Physiol. 150:312, 1992; Sihhu et al., J. Cell. Physiol. 169:108, 1996) and Tα1 was given topically at the time of wounding (5 μg in 50 μl) and again after 48 hr. Controls for the topical treatment received identical amounts of saline at the time of wounding and at 48 hr. Three rats in each group also received intraperitoneal injections at the time of wounding (60 μg in 300 μl) and again every other day. Controls for these animals received identical amounts of saline i.p. on the same injection schedule. At days 8 and 9 post-wounding, tissue was collected and fixed in 10% buffered formalin (i.p. n=18 samples; topical n=9 samples). The samples were sectioned and stained with H&E and Masson's Trichrome (American Histolabs, Gaithersburg, Md.).

[4] = system: HUVECs; test: Tube formation assay on Matrigel; type: cell-based, human
Procedure: Migration and differentiation during angiogenesis can be studied in vitro using Matrigel, a basement membrane matrix on which HUVECs undergo capillary-like tube formation (Grant et al., J. Cell. Physiol. 153: 614, 1992; Kubota et al., J. Cell Biol. 107: 1589, 1988). The tube formation assay was performed according to Grant et al. (J. Cell. Physiol. 153:614, 1992) with the following modifications. Twenty-four well Nunclon plates were coated with 320 μl of Matrigel (10 mg/ml) and incubated at 37° C. for 30 min to promote gelling. 30,000 HUVECs were resuspended in growth media and added to each well with 1, 10, 100 and 1000 ng of synthetic Tα1, 20 and 200 μg/ml ECGS (a bovine brain extract that contains aFGF and bFGF and acts as a positive control) or media alone. The final serum concentrations were 10% or 5%. After 18 h, plates were fixed with Diff-Quik (Baxter Healthcare Corporation, McGraw Park, Ill.) and the length of the tubes was measured using an Olympus CK2 microscope with a 2× objective connected to a Javelin CCTV camera with a 3.3× coupler and NIH Image 1.57 software. Three random measurements of each of four wells at each culture condition were measured. Each experiment was repeated at least three times.

[5] = system: Neutrophils; test: Boyden chamber migration, neutrophils; type: cell-based; conditions: for average number of cells that migrated ± SEM: Neutrophils
Procedure: as §1, §2

[6] = system: Monocytes; test: Boyden chamber migration, monocytes; type: cell-based; conditions: for average number of cells that migrated ± SEM: Monocytes
Procedure: [The procedure below names another cell line; the source lists this cell line under the same test.] as §2

[7] = system: HUVEC; test: HUVEC migration in Boyden chamber assays; type: cell-based, human
Procedure: as §2

## thymosin α1 (SDAAVDTSSEITTKDLKEKKEVVEEAEN; not fully specified; ends and bridges not checked; UniProt P06454 2-29, looked up) [Tα1, 28 amino acid peptide which results from the cleavage of the N-terminal region of prothymosin α1]
[1]; Thymosin α1 1 ng/ml
  average number of cells that migrated ± SEM: 5 ± 0.4
[1]; Thymosin α1 10 ng/ml
  average number of cells that migrated ± SEM: 5 ± 0.4
[1]; Thymosin α1 100 ng/ml
  average number of cells that migrated ± SEM: 4.8 ± 0.7
[1]; Thymosin α1 1000 ng/ml
  average number of cells that migrated ± SEM: 5.2 ± 0.5
[1]; Foreskin fibroblasts
  migration toward Tα1: did not demonstrate any significant migration
[2]; 1 μg/ml and 500 μg/ml
  cell migration into plugs: a decrease in migration was observed
[2]; 5 μg/ml of Tα1
  cell migration and angiogenesis in vivo vs Matrigel alone: always significantly higher than Matrigel alone
[3]; intraperitoneal on alternate days 60 μg/300 μl
  reepithelization of the wound: Complete reepithelization
[3]; intraperitoneal, 60 μg in 300 μl every other day
  wound healing compared to untreated wounds: significantly accelerated wound healing
[3]; intraperitoneal
  collagen production (Masson's trichrome): enhanced collagen production
  histology of dermis near dermal and epidermal junction: capillary ingrowth in granulation tissue and hypercellular dermis
[3]; topical 5 μg/50 μl
  reepithelization of the wound: complete reepithelization of the wound with 2-3 layers of thick epidermis
[3]; topical, 5 μg in 50 μl at wounding and after 48 hr
  wound healing compared to untreated wounds: significantly accelerated wound healing
[3]; topical
  collagen production (Masson's trichrome): enhanced collagen production
  histology of dermis near dermal and epidermal junction: capillary ingrowth in granulation tissue and hypercellular dermis
[4]; 1 or 10 ng/ml Tα1, 5% serum
  tube formation: did not form tubes
[4]; 100 and 1000 ng/ml Tα1, 5% serum
  tube formation: formed highly organized tubes
[4]; 100 or 1000 ng/ml Tα1, 10% serum
  tube formation vs control cells: formed more tubes than control cells
[4]; 100 or 1000 ng/ml Tα1, 10% serum, 18 h, media alone 208 μm
  average length of tubes: 316-324 μm
[5]; Thymosin α1 1 ng/ml
  average number of cells that migrated ± SEM: 138.7
[5]; Thymosin α1 10 ng/ml
  average number of cells that migrated ± SEM: 138.7 ± 20
[5]; Thymosin α1 100 ng/ml
  average number of cells that migrated ± SEM: 149.3 ± 13.5
[5]; Thymosin α1 1000 ng/ml
  average number of cells that migrated ± SEM: 149.3 ± 27
[5]; neutrophils
  migration toward Tα1: did not demonstrate any significant migration
[6]; 100 ng/ml
  Monocyte migration: appeared to be inhibited
[6]; 1000 ng/ml of Tα1
  Monocyte migration: increased
[6]; Thymosin α1 100 ng/ml
  average number of cells that migrated ± SEM: 20 ± 5.4
[6]; Thymosin α1 1000 ng/ml
  average number of cells that migrated ± SEM: 80 ± 7.6
[7]; Tα1 in the lower wells, filters coated with collagen IV
  increase in HUVEC migration: 3-6 fold
[7]; increasing Tα1 in lower well vs in upper and lower wells
  checkerboard assay, chemoattraction vs chemokinesis: More cells migrated along the concentration gradient of Tα1 in the lower well
